# Where a name gives a salt, the structure may show the parent alone.
# Molecular target: T1, human recombinant CCR4 receptor (Homo sapiens, UniProt P51679)
# T1 construct: host or cells: CHO-K1
# T1 sequence (P51679 1-360): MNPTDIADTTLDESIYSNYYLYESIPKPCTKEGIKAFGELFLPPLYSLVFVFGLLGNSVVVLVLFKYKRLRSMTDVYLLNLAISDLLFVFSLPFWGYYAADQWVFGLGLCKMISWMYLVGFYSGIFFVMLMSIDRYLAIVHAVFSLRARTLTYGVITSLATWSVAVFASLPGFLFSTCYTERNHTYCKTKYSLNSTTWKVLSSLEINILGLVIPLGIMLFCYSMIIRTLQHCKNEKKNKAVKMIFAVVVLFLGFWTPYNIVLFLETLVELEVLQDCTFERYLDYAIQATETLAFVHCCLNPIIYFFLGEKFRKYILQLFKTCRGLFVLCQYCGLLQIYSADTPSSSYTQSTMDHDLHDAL
# Experiment: FMAT whole cell binding assay (FB-MDC binding to CHO-K1 cells expressing CCR4)
# Conditions: inhibition of 2.8 nM FB-MDC binding to CHO-K1 cells stably expressing human recombinant CCR4; two hours incubation at room temperature; FMAT8100 reader
# Procedure: FMAT Whole cell Binding Assay
# CHO-K1 cells stably expressing the human recombinant CCR4 receptor (Euroscreen; Brussels, Belgium) were cultured in NUT.MIX.F—12(HAM) medium with glutamax-1, containing 10% (v/v) foetal bovine serum and 400 μg ml^−1 geneticin.
# Cells were harvested at approximately 70% confluence by treatment with a cell dissociation buffer, and seeded at 5×10^3 cells/100 μl culture medium into wells of a black Costar clear-bottomed 96-well microtitre plates. Plates were incubated overnight at 37° C. in 5% CO2 and used the following day.
# Before use, the cell plates were washed twice with 100 μl Hanks balanced salt solution (HBSS). To each well was then added 65 μl of HBSS, 10 μL of 10% DMSO in HBSS±test compound and then 25 μL of 2.8 nM FB-MDC (Applied Biosystems). This fluorescent probe was prepared from a 10 μM stock in 0.08% (v/v) TFA/16% (v/v) acetonitrile, diluted into HBSS.
# After two hours incubation in the dark at room temperature, the plates were analysed in an FMAT8100 reader (Applied Biosystems) to measure fluorescence that was associated with binding of FB-MDC to the cells. Compound activity was determined as an pIC50 [log(concentration of compound that results in 50% inhibition)], comparing fluorescence in control and background wells.
row,SMILES,IC50 [nM]
1,"COc1nc2ccccc2nc1NS(=O)(=O)c1ccc(Cl)s1 [Example 3, 5-Chloro-N-(3-methoxyquinoxalin-2-yl)thiophene-2-sulfonamide]",398
2,"O=S(=O)(Nc1nc2ccccc2nc1OCc1ccco1)c1cccs1 [Example 5, N-[3-(2-Furylmethoxy)quinoxalin-2-yl]thiophene-2-sulfonamide]",2000
3,"COc1nc2ccccc2nc1NS(=O)(=O)c1cccc(Cl)c1Cl [Example 1, 2,3-Dichloro-N-(3-methoxyquinoxalin-2-yl)-benzenesulfonamide]",1580

# Test system: not given
# Experiment: not given
# Conditions: not given
row,SMILES,melting point [°C]
1,"COc1nc2cc(Br)cnc2nc1NS(=O)(=O)c1cccc(Cl)c1Cl [Example 12, N-(7-bromo-2-methoxypyrido[2,3-b]pyrazin-3-yl)-2,3-dichlorobenzenesulfonamide]",233 to 234
2,"COc1nc2cnccc2nc1NS(=O)(=O)c1cccc(Cl)c1Cl [Example 13, 2,3-Dichloro-N-(3-methoxypyrido[3,4-b]pyrazin-2-yl)benzenesulfonamide]",256 to 257
3,"COc1nc2ncc(Br)cc2nc1NS(=O)(=O)c1cccc(Cl)c1Cl [Example 11, N-(7-Bromo-3-methoxypyrido[2,3-b]pyrazin-2-yl)-2,3-dichlorobenzenesulfonamide]",230 to 231
4,"COc1cc2nc(NS(=O)(=O)c3cccc(Cl)c3Cl)c(OC)nc2cc1OC [Example 9, 2,3-Dichloro-N-(3,6,7-trimethoxyquinoxalin-2-yl)benzenesulfonamide]",215
5,"COc1nc2cc(Cl)c(Cl)cc2nc1NS(=O)(=O)c1cccc(Cl)c1Cl [Example 10, 2,3-Dichloro-N-(6,7-dichloro-3-methoxyquinoxalin-2-yl)benzenesulfonamide]",283 to 285
6,"COc1nc2cccnc2nc1NS(=O)(=O)c1cccc(Cl)c1Cl (as salt: TFA) [Example 7, 2,3-Dichloro-N-(2-methoxypyrido[2,3-b]pyrazin-3-yl)benzenesulfonamide]",238 to 239

# Source: US20070093491A1, “Novel condensed n-pyrazinyl-sulphonamides and their use in the treament of chemokine mediated diseases” (priority 2003, published 2007)
